According to patent US5506239A, “Carbostyril derivative and platelets aggregation inhibitory agent” (Otsuka Pharmaceutical Co., Ltd., priority 1991, dated 1996):

Assays:
platelets [1] = test: Platelets aggregation inhibitory activity (method of Born et al.), ADP-induced, human PRP (Pharmacological Test I); type: cell-based, man; settings: 7.5 μM ADP, 37° C., read-out: IC50 ADP (50% platelets aggregation inhibition)
Protocol: (§1) The platelets aggregation inhibitory activity of each test compound was measured by the method of Born et al. [J. Physiol., London, 162, 67 (1962)], using Platelets Aggregation Tracer manufactured by Nikoh Bioscience Co., Ltd.
(§2) 9 volumes of a blood collected from person was mixed with 1 volume of a 3.8% aqueous sodium citrate solution. Part of the mixture was subjected to centrifugation at 1,100 rpm for 10 minutes to obtain a platelet rich plasma (PRP). The remainder of the mixture was also subjected to centrifugation at 3,000 rpm for 10 minutes to obtain a platelet poor plasma (PPP).
(§3) The number of platelets in the PRP was measured using Coulter Counter manufactured by Coulter Electronics Inc. Then, the PRP was diluted with the PPP so that the number of platelets in the dilution became 300,000, whereby a PRP solution was prepared.
(§4) 200 μl of this PRP solution and 2 ml of a solution containing a test compound at a given concentration were placed in an aggregation measurement cell and heated at 37° C. for 1 minute. Thereto was added 20 μl of adenosine diphosphate (ADP manufactured by Sigma Co.) or a collagen suspension (Collagen Reagent manufactured by Horm, Hormon-Chemie, Gmbh) to induce aggregation of platelets. The resulting mixture in the cell was measured for change of transmittance, after which a platelets aggregation curve was prepared. Incidentaly, the concentration of ADP or collagen was selected so that the final Concentration became 7.5 μM or 20 μg/ml.
(§5) Using the platelets aggregation curve, there was calculated a maximum aggregation rate (MAR) of platelets using the followoing formula: […]
(§6) wherein a represents a transmittance of the PRP obtained in the same manner; c represents a transmittance of the PPP obtained in the same manner; and b represents a transmittance at the maximum change, of the PRP solution containng the test compound and the aggregation inducer.
(§7) A MAR was also calculated as above, for the control containing no test compound.
(§8) Using the above two MARs, there were calculated platelets aggregation inhibitions (%) of each test compound at various concentrations using the following formula.
(§9) Inhibition=[1-(MAR of PRP solution containing test compound)/(MAR of PRP
(§10) solution containing no test compound)]×100
(§11) Using the above obtained platelets aggregation inhibitions (%) of each test compound at various concentrations, there was calculated a concentration (IC50) of each test compound for 50% platelets aggregation inhibition.

platelets [2] = test: Platelets aggregation inhibitory activity (method of Born et al.), collagen-induced, human PRP (Pharmacological Test I); type: cell-based, man; settings: 20 μg/ml collagen, 37° C., read-out: IC50 Collagen (50% platelets aggregation inhibition)
Protocol: as §1, §2, §3, §4, §5, §6, §7, §8, §9, §10, §11

mongrel dogs = settings: dog, in vivo, 300 mg/kg
Protocol: The heart rate-increasing activity and blood pressure hypotensive activity of each test compound were measured by the following method, using mongrel dogs each weighing 10-20 kg. That is, said dogs were anesthesized by intravenous injection of pentobarbital sodium, then fixed at the back, and tested under artificial respiration. The blood pressures of the dogs were measured by a blood pressure measuring transducer (P23×L manufactured by Gould Statham Instruments, Inc.) via cannula inserted into the femoral artery. The heart rates of the dogs were measured using the pulse wave of the blood pressure of each dog, via a tachometer. The signals of these testng apparatuses were recorded on a thermal pen-type recorder (Recti-Horize 8K manufactured by Nippon Denki-San-ei Sha).
Some of the compounds obtained in the above Examples were used as test compounds. […] Then, the heart rate of each dog was measured according to the above method and a maximum change in heart rate was calculated.

platelets [3] = test: Inhibition of collagen-induced platelets adhesion, washed platelets (Pharmacological Test III); type: cell-based, man; settings: Platelet, 50 μg/ml collagen, human washed platelets, read-out: Inhibition (%) of collagen-induced platelets adherence
Protocol: A blood was collected from a healthy person with normal platelets function by addition of 0.1% disodium ethylenediaminetetraacetate (EDTA.4Na) and immediately subjected to separation of a platelet rich plasma (PRP). The PRP was washed twice with a Tyrode's buffer solution (50mM TRIS, 0.1% EDTA, Ca (-), Mg (-), 0.14% BSA added, pH=7.4), and suspended in the buffer solution so that the number of platelets in the resulting suspension became 300, 000/ml, to obtain a platelets suspension (EDTA-WP). 4 mg of Type I manufactured by Sigma Co., derived from a bovine skin was dissolved in 0.25 ml of acetic acid (83.5 mM); 8 ml of distilled water was added thereto; an ultrasonic wave was applied to the mixture at 4° C. for 2 minutes; 5 ml of the supernatant liquid was separated as a collagen solution. Each test compound was dissolved in dimethylformamide (DMF) so as to give a concentration of at least […] when possible, to prepare a test compound solution. The change in turbidity of platelets suspension was recorded as a change in transmitted light emitted from a glass cell containing the suspension, using a platelets aggregation tracer manufactured by Nikoh Bioscience K.K., generally used in the test of platelets aggregation function, whereby the adherence of platelets was measured. Incidentally, in recoridng the change in transmitted light, the sensitivity of the recorder was 5 times as high as that used generally. 200 μl of the EDTA-WP was placed in a glass cell exclusively used for the above platelets aggregation tester. Further, 1 μl of the test compound solution was added. The mixture was incubated at room temperature for 5 minutes. Then, the cell was set in the platelets aggregation tracer and was allowed to stand for 1 minute until the temperature became 37° C. Thereafter, about 20 μl (50 μg/ml) of the collagen solution was added, and the adherence of platelets were measured.
The inhibitions (%) of collagen-induced platelets adhesion by each test compound at various concentrations were calculated using the following formula.
Inhibition (%)=[1-(platelets adherence when test compound added)/
(platelets adherence when no test compound added)]×100

[4] = target: T1, cyclic AMP phosphodiesterase (Homo sapiens, UniProt Q14432); test: Cyclic AMP phosphodiesterase inhibitory activity, enzyme from human platelets (Pharmacological Test IV); type: biochemical, man; settings: 0.4 μM cyclic AMP substrate, 30° C., 20 minutes, human platelet enzyme; read-out: IC50 (50% phosphodiesterase inhibition concentration)
T1 construct: the resulting supernatant liquid was used as a crude enzyme solution; from tissue; host or cells: human platelets (from platelet-rich plasma)
T1 sequence (Q14432 whole entry): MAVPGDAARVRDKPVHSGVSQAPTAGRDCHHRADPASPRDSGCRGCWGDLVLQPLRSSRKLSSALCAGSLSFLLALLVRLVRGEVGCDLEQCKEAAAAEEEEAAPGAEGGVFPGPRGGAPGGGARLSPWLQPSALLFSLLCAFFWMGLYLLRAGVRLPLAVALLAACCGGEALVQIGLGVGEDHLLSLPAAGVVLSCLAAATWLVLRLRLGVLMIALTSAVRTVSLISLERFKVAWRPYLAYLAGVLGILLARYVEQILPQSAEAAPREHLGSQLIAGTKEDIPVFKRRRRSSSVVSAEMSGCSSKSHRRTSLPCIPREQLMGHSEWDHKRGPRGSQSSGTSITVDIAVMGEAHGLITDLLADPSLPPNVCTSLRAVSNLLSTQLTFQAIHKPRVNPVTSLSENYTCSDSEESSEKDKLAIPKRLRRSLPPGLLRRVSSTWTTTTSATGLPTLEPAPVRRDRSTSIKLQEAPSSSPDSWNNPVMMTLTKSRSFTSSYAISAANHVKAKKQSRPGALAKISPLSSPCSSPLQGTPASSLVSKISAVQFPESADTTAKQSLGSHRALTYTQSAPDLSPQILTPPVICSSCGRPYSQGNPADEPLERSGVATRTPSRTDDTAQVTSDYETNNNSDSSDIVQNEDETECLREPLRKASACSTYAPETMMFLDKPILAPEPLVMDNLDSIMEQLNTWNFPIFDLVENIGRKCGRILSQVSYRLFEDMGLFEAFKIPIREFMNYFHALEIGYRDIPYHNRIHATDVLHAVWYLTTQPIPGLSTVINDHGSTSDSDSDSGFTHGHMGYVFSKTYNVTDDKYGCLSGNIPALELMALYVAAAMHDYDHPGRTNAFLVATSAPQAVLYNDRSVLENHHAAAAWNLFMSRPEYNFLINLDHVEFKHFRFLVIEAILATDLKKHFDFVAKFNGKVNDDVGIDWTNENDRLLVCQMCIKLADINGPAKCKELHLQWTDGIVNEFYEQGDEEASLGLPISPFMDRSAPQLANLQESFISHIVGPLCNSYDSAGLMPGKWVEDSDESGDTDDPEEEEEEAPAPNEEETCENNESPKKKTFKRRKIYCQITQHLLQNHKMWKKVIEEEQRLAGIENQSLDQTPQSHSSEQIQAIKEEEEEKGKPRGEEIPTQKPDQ

SMILES	IC50 (platelets [1]; Homo sapiens, Platelet) [µM]	Maximum change in heart rate (mongrel dogs) [beats/minute]	IC50 (platelets [2]; Homo sapiens, Platelet) [µM]	also measured
O=c1ccc2cc(OCCCCN(CCN3CCC(O)CC3)CC3CCCCCCC3)ccc2[nH]1 [Example 15]	10	1		IC50 (platelets [2]): 3.6 µM
O=c1ccc2cc(OCCCCN(CCN3CCC(O)CC3)CC3CCCCCCC3)ccc2[nH]1 [Example 16]				IC50 (platelets [1]): 6.3 µM; IC50 (platelets [2]): 7.4 µM; inhibition at 10 µM (platelets [3]): 48%
O=C(CN(CCCCOc1ccc2[nH]c(=O)ccc2c1)CC1CCCCCCC1)N1CCC(O)CC1 [Example 19]	6.1	24	5.3	
O=C(CN(CCCCCOc1ccc2[nH]c(=O)ccc2c1)Cc1ccccc1)N1CCC(O)CC1 [Example 20]	2		1.2	inhibition at 10 µM (platelets [3]): 49%
O=c1ccc2cc(OCCCCN(CCN3CCC(O)CC3)CC3CCCCC3)ccc2[nH]1 [Example 23]	8	-2	9.5	
O=c1ccc2cc(OCCCCN(CCN3CCC(O)CC3)c3ccccc3)ccc2[nH]1 [Example 27]	6.7	7	7.7	inhibition at 30 µM (platelets [3]): 40%
O=c1ccc2cc(OCCCCN(CCN3CCC(O)CC3)Cc3ccccc3)ccc2[nH]1 [Example 28]		0		inhibition at 10 µM (platelets [3]): 48%; IC50 [4]: 480 nM
CN(C)C(=O)[C@@H]1CCCN1CCN(CCCCCOc1ccc2[nH]c(=O)ccc2c1)Cc1ccccc1 [Example 53]	11		13	inhibition at 30 µM (platelets [3]): 35%
CC(=O)NCCN(CCCCOc1ccc2[nH]c(=O)ccc2c1)CC1CCCCCCC1 [Example 61]	4.9	17	6.3	inhibition at 30 µM (platelets [3]): 35%
CCN(CC)CCN(CCCCOc1ccc2[nH]c(=O)ccc2c1)CC1CCCCCC1 [Example 62]	18	2	17	inhibition at 100 µM (platelets [3]): 54%
O=C(O)CN(CCCCOc1ccc2[nH]c(=O)ccc2c1)CC1CCCCCCC1 [Example 64]	9		10	inhibition at 30 µM (platelets [3]): 31%
O=c1ccc2cc(OCCCCN(CC(O)CO)CC3CCCCC3)ccc2[nH]1 (stereo not drawn) [Example 68]	15	30	7.1	
O=c1ccc2cc(OCCCCCN(Cc3ccccc3)Cc3ccccn3)ccc2[nH]1 [Example 70]	40		22	IC50 [4]: < 100 nM
COC(=O)[C@@H]1C[C@@H](O)CN1CCCCOc1ccc2[nH]c(=O)ccc2c1 [Example 73]	25		6.9	inhibition at 100 µM (platelets [3]): 36%
O=C(NCC1CCCCC1)[C@@H]1C[C@@H](O)CN1CCCCOc1ccc2[nH]c(=O)ccc2c1 [Example 75]	9.1		13	inhibition at 300 µM (platelets [3]; dose 300 μM): 57%
CN(C1CCCCC1)S(=O)(=O)CCCOc1ccc2[nH]c(=O)ccc2c1 [Example 76]				inhibition at 30 µM (platelets [3]): 35%

SMILES	IC50 (platelets [1]; Homo sapiens, Platelet) [µM]	Maximum change in heart rate (mongrel dogs) [beats/minute]	IC50 (platelets [2]; Homo sapiens, Platelet) [µM]	also measured
O=c1ccc2cc(OCCCCS(=O)(=O)N(CCN3CCC(O)CC3)CC3CCCCCCC3)ccc2[nH]1 [Example 79]	1.3		2.5	IC50 [4]: < 100 nM
O=c1ccc2cc(OCCCS(=O)(=O)N(CCN3CCC(O)CC3)Cc3ccccc3)ccc2[nH]1 [Example 83]	11	9	4.3	
O=c1ccc2cc(OCCCS(=O)(=O)N(CCN3CCC(O)CC3)C3CCCCC3)ccc2[nH]1 [Example 86]	8		12	inhibition at 10 µM (platelets [3]): 47%
O=c1ccc2cc(OCCCCS(=O)(=O)N(CCN3CCC(O)CC3)Cc3ccccc3)ccc2[nH]1 [Example 89]	7.7		3.8	IC50 [4]: < 100 nM
O=c1ccc2cc(OCCCCS(=O)(=O)N(CCN3CCC(O)CC3)Cc3ccccc3Cl)ccc2[nH]1 [Example 93]	1.2		2.6	IC50 [4]: < 100 nM
O=c1ccc2cc(OCCCS(=O)(=O)N(CC(O)CO)CC3CCCCC3)ccc2[nH]1 (stereo not drawn) [Example 109]	4.9	16	6.3	
O=c1ccc2cc(OCCCCN(Cc3ccccc3)S(=O)(=O)CCN3CCC(O)CC3)ccc2[nH]1 [Example 119]	20		20	inhibition at 10 µM (platelets [3]): 40%
O=c1ccc2cc(OCCCCN(Cc3ccccc3)S(=O)(=O)CCn3cncn3)ccc2[nH]1 [Example 121]				inhibition at 30 µM (platelets [3]): 38%
O=c1ccc2cc(OCCCCN(Cc3ccccc3)S(=O)(=O)CCCn3ccnc3)ccc2[nH]1 [Example 122]	22		29	
O=c1ccc2cc(OCCCCN(Cc3ccccc3)S(=O)(=O)CCCn3cncn3)ccc2[nH]1 [Example 123]	17		9.5	inhibition at 10 µM (platelets [3]): 39%
O=c1ccc2cc(OCCCCN(Cc3ccccc3)S(=O)(=O)CCCN3CCC[C@H]3CO)ccc2[nH]1 [Example 126]	10		15	
O=c1ccc2cc(OCCCCN(CCN3CCC(O)CC3)S(=O)(=O)CC3CCCCC3)ccc2[nH]1 [Example 130]	14		13	inhibition at 10 µM (platelets [3]): 43%
O=C(NCCCOc1ccc2[nH]c(=O)ccc2c1)N(CCN1CCC(O)CC1)CC1CCCCCCC1 [Example 131]	2.4		1.3	
O=c1ccc2cc(OCCCNC(=S)N(CCN3CCC(O)CC3)CC3CCCCCCC3)ccc2[nH]1 [Example 132]	2.4		1.8	
O=c1ccc2ccc(OCCCCN(CCN3CCC(O)CC3)CC3CCCCCCC3)cc2[nH]1 [Example 134]				inhibition at 10 µM (platelets [3]): 45%; IC50 [4]: 490 nM
CN(C(=S)CCCOc1ccc2[nH]c(=O)ccc2c1)C1CCCCC1 [Example 143]			2.3	IC50 (platelets [1]): 3.8 µM; IC50 [4]: 1440 nM
